Data reported in US12473582B2, “Method and agents for detecting luciferase activity” (LIGHT BIO, INC., priority 2015, dated 2025).

How the values were obtained:
[1] = target: T1, luciferase and hispidin-3-hydroxylase (cold extract of N. nambi) (Neonothopanus nambi, UniProt A0A3G9K5C8); experiment: Dependence of maximal bioluminescence (Imax) on reagent concentration in the reaction mixture; assay type: biochemical
T1 construct: an extract comprising the enzymes of the fungal bioluminescent system and free from low-molecular-weight components; from tissue; host or cells: Neonothopanus nambi mycelium, crude cold extract (30000 g supernatant of the homogenate)
Description: The concentrated hispidin solution was used to produce dilutions of 1/50, 1/500, 1/5000, 1/50000 in an aqueous solution with 0.1% Triton X-100 and 0.1% formic acid.
The reaction mixture in the bioluminometer cuvette comprised: 100 μL 0.1 M phosphate buffer, pH 7.5, containing 0.1 mM DTT, 4 μL of the cold extract of N. nambi, 1-5 μL of hispidin dilutions. The bioluminescent reaction was activated by adding 4 μL 10 mM NADPH. Bioluminescence was measured at 25° C.
The reaction mixture in the bioluminometer cuvette comprised: 100 μL 0.1 M phosphate buffer, pH 7.5, comprising 0.1 mM DTT, 4 μL of the cold extract of N. nambi, 4 μL 64 μM hispidin solution and various amounts of Triton X-100 detergent. The bioluminescent reaction was activated by adding 4 μL 10 mM NADPH. […] The optimal detergent concentration in the reaction mixture was determined as 0.015 to 0.03%. The maximum detergent concentration at which bioluminescence was observed was 0.5%.
The reaction mixture in the bioluminometer cuvette comprised: 100 μL 0.1 M phosphate buffer, pH 7.5, comprising 0.1 mM DTT, 4 μL of the cold extract of N. nambi, 4 μL […] hispidin solution. The bioluminescent reaction was activated by adding various amounts of NADPH. […] The minimum NADPH concentration which provided detectable bioluminescence was 20 μM.
The reaction mixture in the bioluminometer cuvette comprised: 100 μL 0.1 M phosphate buffer, pH 7.5, comprising various concentrations of DTT, 4 μL of the cold extract of N. nambi, 4 μL 64 μM hispidin solution. The bioluminescent reaction was activated by adding 4 μL 10 mM NADPH. […] The optimal DTT concentration in the reaction mixture was 0.5 to 3 mM. The maximum DTT concentration which provided bioluminescence was 10 mM.

[2] = target: T2, cold extract from Neonothopanus nambi (Neonothopanus nambi, UniProt A0A3G9K5C8); experiment: Bioluminescent test of hot-extract HPLC fractions with cold extract and NADPH; assay type: biochemical; conditions: cold extract from N. nambi, NADPH; values normalised against optical density at 360 nm
T2 construct: an extract comprising the enzymes of the fungal bioluminescent system and free from low-molecular-weight components; from tissue; host or cells: Neonothopanus nambi mycelium, crude cold extract (30000 g supernatant of the homogenate)
Description: The obtained extracts were tested in a bioluminescent test described by Oliveira and Stevani (Photochem. Photobiol. Sci., 2009, 8, 1416) using a cold extract from Neonothopanus nambi.
In order to obtain a cold extract, the mycelium was washed to get rid of culture medium, then, it was put into a 200-fold amount of distilled water for 15 hours at 26° C. Thereafter, the mycelium was separated from water by centrifugation, then, it was homogenized on ice in 10 volumes of 0.2 M phosphate buffer, pH 7.5 and sonicated on ice for 10 minutes using Ultrasonic disintegrator UD-20. The homogenate was centrifuged at 30000 g at […] for 20 minutes. The obtained cold extract was stored at −20° C.
500 μl of the following components were mixed for a bioluminescent test: 25 μL of cold extract, 2 μL of hot extract, 442 μL 0.2 M phosphate buffer, pH 7.5, 1 μL 1 M DTT and 10 μL 1% Triton X-100. The bioluminescent reaction was initiated in a Glomax 20/20 (Promega, USA) luminometer cuvette by adding 20 μL 20 mM NADPH. Luminescence was measured at 23±1° C.
The maximum luminescence of fractions 1-6 was 24000, 80, 6670, 40, 1300 and 1000 correspondingly (a signal-to-noise ratio of the luminometer, the values were normalised against optical density at 360 nm).

[3] = test system: luciferase and hispidin-3-hydroxylase; experiment: Detection of luciferase and hispidin-3-hydroxylase in fungal cold extracts with hispidin and NAD(P)H; assay type: biochemical
Description: Commercially available hispidin (Sigma-Aldrich, USA) was used for detecting luciferase and hispidin-3-hydroxylase in the cold extracts obtained from the mycelia of Neonothopanus nambi, Mycena citricolor, Panellus stipticus, and Armillaria borealis as described in Example 1.
Hispidin was dissolved in DMSO to a final concentration of 8 mg/ml (32 mM). Then, the obtained concentrated solution was diluted 500-fold by aqueous solution containing 0.1% Triton X-100 and 0.1% formic acid. Hispidin concentration in the obtained working solution was 64 μM.
The reaction mixture in Glomax 20/20 cuvette (Promega, USA) comprised: 100 μL 0.2 M phosphate buffer, pH 7.5, comprising 0.1 mM DTT and 0.1 mM EDTA, 1-5 μL of fungal extract, 4 μL 64 μM hispidin solution. The luminescent reaction was initiated by adding 4 μL 10 mM NADPH.
In a different experiment, the same samples were tested for the presence of luciferase and hispidin-3-hydroxylase activities as described above with the exception that NADH was used (instead of NADPH). In this case, luminescence was 2-3 times lower than when using NADPH.

fungal bioluminescence = conditions: isolated from Pleurotus japonicus; cited from earlier work
luciferase = experiment: Detection of luciferase in microsomal fractions of cold extracts with 3-hydroxyhispidin; assay type: biochemical; conditions: aliquots with 0.006 ng and 0.16 ng of luciferin; microsomal fractions of four fungi
Description: 3-hydroxyhispidin was obtained as described in Example 3. The microsomal fractions of the cold extracts of Neonothopanus nambi, Mycena citricolor, Panellus stipticus and Armillaria borealis were used as biological samples. The cold extracts were obtained as described in Example 2. The microsomal fractions were obtained as described in Example 3.
10 μg of 3-hydroxyhispidin were dissolved in 1 mL 50% water-acetonitrile mixture containing 0.1% formic acid.
During the experiment, in each case, the background luminescence of the microsomal fraction was measured in the first place, and then, at 0.7 and 1.55 minutes, 3-hydroxyhispidin solution aliquots were added, which contained 0.006 ng and 0.16 ng of luciferin, correspondingly.

[4] = Stability of 3-hydroxyhispidin; assay type: physicochemical
[5] = Solubility of 3-hydroxyhispidin; assay type: physicochemical
[6] = hispidin, NADPH, cold extract of N. nambi
[7] = 0.1 M phosphate buffer pH 7.5, 0.1 mM DTT, NADPH, 25° C.

T1 sequence (A0A3G9K5C8 whole entry): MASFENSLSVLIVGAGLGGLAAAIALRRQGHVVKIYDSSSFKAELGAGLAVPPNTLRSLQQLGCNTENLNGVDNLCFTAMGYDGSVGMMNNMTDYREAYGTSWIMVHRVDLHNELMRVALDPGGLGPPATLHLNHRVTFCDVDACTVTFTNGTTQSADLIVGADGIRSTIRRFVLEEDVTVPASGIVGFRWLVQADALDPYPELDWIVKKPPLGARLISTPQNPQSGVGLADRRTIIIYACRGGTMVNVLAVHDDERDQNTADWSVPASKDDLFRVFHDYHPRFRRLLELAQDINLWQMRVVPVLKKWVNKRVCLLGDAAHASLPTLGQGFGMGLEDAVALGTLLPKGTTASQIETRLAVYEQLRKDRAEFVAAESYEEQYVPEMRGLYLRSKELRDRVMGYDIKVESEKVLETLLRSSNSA
T2 sequence (A0A3G9K5C8 whole entry): as above

## Triton X-100 [reference compound]
[1]; [6]
  maximum detergent concentration at which bioluminescence was observed: 0.5%

## 3.3-bishispidinyl [Fraction 2]
[2]
  maximum luminescence: 80 signal-to-noise ratio of the luminometer

## O=c1cc(O)cc(/C=C/c2ccc(O)c(O)c2)o1 (single isomer, unassigned) [Fraction 1, (E)-6-(3,4-dihydroxystyryl)-4-hydroxy-2H-pyran-2-one]
[2]
  maximum luminescence: 24000 signal-to-noise ratio of the luminometer
[3]; 4 μL 64 μM hispidin, 4 μL 10 mM NADPH, cold extracts of four fungi
  luminescence of cold extracts after adding hispidin and NADPH: Luminescence was detected in all cases
[1]; [7]
  hispidin concentration at which detectable luminescence was observed: ≥ 0.002 µM
  optimal hispidin concentration in the reaction mixture: 2.5 µM
[1]; probably substrate inhibition
  hispidin concentration at which inhibition of the luminescent reaction was observed: more than 5 μM

## O=c1cc(O)cc(/C=C\c2ccc(O)cc2)o1 (single isomer, unassigned) [Fraction 6, (Z)-4-hydroxy-6-(4-hydroxystyryl)-2H-pyran-2-one]
[2]
  maximum luminescence: 1000 signal-to-noise ratio of the luminometer

## nicotinamide adenine dinucleotide phosphate [NADPH, reference compound]
[1]; hispidin, cold extract of N. nambi, pH 7.5
  minimum NADPH concentration which provided detectable bioluminescence: 20 µM

## Cc1cc2nc3c(=O)[nH]c(=O)nc-3n(C[C@H](O)[C@H](O)[C@H](O)COC3OC(CO)C(O)C3O)c2cc1C (some centres unmarked) [lampteroflavin]
Fungal bioluminescence
  bioluminescent activity: did not show bioluminescent activity

## Cc1cc2nc3c(=O)[nH]c(=O)nc-3n(C[C@H](O)[C@H](O)[C@H](O)CO)c2cc1C [riboflavin]
Fungal bioluminescence
  bioluminescent activity: did not show bioluminescent activity

## O=c1cc(O)cc(/C=C/c2ccc(O)cc2)o1 (single isomer, unassigned) [Fraction 5, (E)-4-hydroxy-6-(4-hydroxystyryl)-2H-pyran-2-one]
[2]
  maximum luminescence: 1300 signal-to-noise ratio of the luminometer
[3]; bisnoryangonin added instead of hispidin
  maximum intensity of sample luminescence, times lower as compared to using hispidin: approximately 10 times

## O=c1cc(O)cc(C=Cc2cc(O)c(O)cc2-c2c(O)cc(C=Cc3ccc(O)cc3)oc2=O)o1 [Fraction 4, 3-bisnoryangonyl-14-hispidin]
[2]
  maximum luminescence: 40 signal-to-noise ratio of the luminometer

## O[C@H](CS)[C@H](O)CS (racemic) [DTT, dithiothreitol, reference compound]
[1]; [6]
  maximum DTT concentration which provided bioluminescence: 10 mM

## CC1=C2C(=C[C@@](C)(CO)[C@@H]2O)C(=O)[C@](C)(O)C12CC2 [illudin S]
Fungal bioluminescence
  bioluminescent activity: did not show bioluminescent activity

## O=c1cc(O)cc(/C=C\c2ccc(O)c(O)c2)o1 (single isomer, unassigned) [Fraction 3, (Z)-6-(3,4-dihydroxystyryl)-4-hydroxy-2H-pyran-2-one]
[2]
  maximum luminescence: 6670 signal-to-noise ratio of the luminometer

## O=c1oc(/C=C/c2ccc(O)c(O)c2)cc(O)c1O [3-hydroxyhispidin, (E)-6-(3,4-dihydroxystyryl)-3,4-dihydroxy-2H-pyran-2-one]
luciferase
  luminescence of microsomal fractions after adding 3-hydroxyhispidin: luminescence was detected
[4]; lyophilized, −20° C., often no less than 60 days, normally no less than a year
  storage time with no activity loss: no less than 30 days
[4]; water solution
  thermal stability: can sustain short-term boiling
[4]; water-acetonitrile mixture with formic acid, final concentration 0.1%
  stability during chromatography: shows stability
[5]; DMSO, acetonitrile, acetone, etc.
  solubility in aprotic solvents: readily soluble
[5]; water
  solubility in water: moderately soluble
